Data as given in patent EP0322133A1, “Quinazoline derivatives” (SmithKline Beecham Intercredit B.V., priority 1987, dated 1989).
Structures can show the parent of a compound that is named as a salt.

System: pentagastrin stimulated gastric acid secretion
Assay: Rat lumen perfused stomach (modified Ghosh and Schild procedure)
Format: in vivo
Conditions: i.v. administration
From the text: Using a modification of the procedure described by Ghosh and Schild (Br. J. Pharmacology, 13, 54, 1958), the compounds of the following Examples were found on i.v. administration at a concentration of 10µmole/kg to cause an inhibition of pentagastrin stimulated gastric acid secretion as indicated in the following Table.

Molecule | Rat G.S. % inhibition @ 10µmole/kg [%]
2-phenylethylamino-4-(2-methylphenylamino)quinazoline [Example 16] | 31

Same assay, conditions: iv, i.v. administration, 10µmole/kg, read-out: Rat G.S. % inhibition @ 10µmole/kg

Molecule | inhibition at 10 µmol/kg [%]
COc1cccc2c(Nc3ccccc3C)nc(N)nc12 [Example 1, 2-amino-8-methoxy-4-(2-methylphenylamino)quinazoline] | 60
COc1cccc2c(NCc3ccccc3)nc(N)nc12 [Example 2, 2-amino-8-methoxy-4-benzylaminoquinazoline] | 25
COc1ccc(Nc2nc(N)nc3c(OC)cccc23)c(C)c1 [Example 3, 2-amino-8-methoxy-4-(2-methyl-4-methoxyphenylamino)quinazoline] | 16
COc1cccc2c(NCc3ccccc3C)nc(N)nc12 [Example 4, 2-amino-8-methoxy-4-(2-methylbenzylamino)quinazoline] | 37
COc1cccc2c(Nc3ccccc3C)nc(N(C)C)nc12 [Example 5, 2-dimethylamino-8-methoxy-4-(2-methylphenylamino)quinazoline] | 37
Cc1ccccc1Nc1nc(N)nc2c(C)cccc12 [Example 6, 2-amino-8-methyl-4-(2-methylphenylamino)quinazoline] | 48
Cc1ccccc1Nc1nc(N)nc2ccccc12 [Example 7, 2-amino-4-(2-methylphenylamino)quinazoline] | 20
Cc1ccccc1Nc1nc(N2CCCC2)nc2ccccc12 [Example 8, 2-pyrrolidino-4-(2-methylphenylamino)quinazoline] | 17
CCc1ccc2nc(N)nc(Nc3ccccc3C)c2c1 [Example 11, 2-amino-4-(2-methylphenylamino)-6-ethylquinazoline] | 28
CNc1nc(Nc2ccccc2C)c2cccc(OC)c2n1 [Example 13, 2-methylamino-8-methoxy-4-(2-methylphenylamino)quinazoline] | 20
COc1cccc2c(Nc3ccccc3C)nc(N3CCCC3)nc12 [Example 15, 2-pyrrolidino-8-methoxy-4-(2-methylphenylamino)quinazoline] | 31
COc1ccccc1Nc1nc(N)nc2c(OC)cccc12 [Example 18, 2-amino-8-methoxy-4-(2-methoxyphenylamino)quinazoline] | 12
CN(c1ccccc1)c1nc(N(C)c2ccccc2)c2ccccc2n1 [Example 20, 2,4-Bis-(N-methylphenylamino)quinazoline hydrochloride] | 72
COc1cccc2c(Nc3ccccc3C)nc(N(C)c3ccccc3)nc12 [Example 21, 2-(N-methylphenylamino)-4-(2-methylphenylamino)-8-methoxyquinazoline] | 37
Cc1ccccc1Nc1nc(N(C)c2ccccc2)nc2ccccc12 [Example 22, 2-(N-methylphenylamino)-4-(2-methylphenylamino)quinazoline hydrochloride] | 27
COc1cccc2c(N(C)c3ccccc3)nc(Nc3ccccc3C)nc12 [Example 24, 4-(N-methylphenylamino)-2-(2-methylphenylamino)-8-methoxyquinazoline] | 97
Cc1ccccc1CNc1nc(N)nc2ccccc12 [Example 25, 2-amino-4-(2-methylbenzylamino)quinazoline] | 24
Cc1ccccc1Nc1nc(N(C)c2ccccc2)c2ccccc2n1 [Example 26, 2-(2-methylphenylamino)-4-(N-methylphenylamino)quinazoline hydrochloride] | 79
CN(c1ccccc1)c1nc(Nc2ccccc2)nc2ccccc12 [Example 27, 2-phenylamino-4-(N-methylphenylamino)quinazoline hydrochloride] | 71
COc1cccc2c(N(C)c3ccccc3)nc(N)nc12 [Example 29, 2-amino-4-(N-methylphenylamino)-8-methoxyquinazoline hydrochloride] | 13
Cc1cc(O)ccc1Nc1nc(N(C)c2ccccc2)c2ccccc2n1 [Example 30, 2-[(4-hydroxy-2-methylphenyl)amino]-4-(N-methylphenylamino) quinazoline hydrochloride] | 23
Cc1ccccc1CNc1nc(N(C)c2ccccc2)c2ccccc2n1 [Example 31, 2-(2-methylbenzylamino)-4-(N-methylphenylamino)quinazoline hydrochloride] | 8
Cc1cc(F)ccc1Nc1nc(N(C)c2ccccc2)c2ccccc2n1 [Example 32, 2-[(2-methyl-4-fluorophenyl)amino]-4-(N-methylphenylamino)quinazoline hydrochloride] | 96
